From patent publication US9730944B2, “Antiviral activity of novel bicyclic heterocycles” (priority 2010, dated 2017)
≈ marks a conversion by molar mass, not a printed value.

Columns and labels:
hRV-42 = experiment: Rhinovirus type 42 antiviral assay in Hela Rh cells, MTS readout; assay type: cell-based, Human rhinovirus; conditions: Human rhinovirus sp., HRV42, HeLa Rh, Hela Rh cells; read-out: hRV-42 EC50
hRV-14 = experiment: Rhinovirus type 14 antiviral assay in Hela Rh cells, MTS readout; assay type: cell-based, Human rhinovirus; conditions: Rhinovirus B, HRV14, HeLa Rh, Hela Rh cells; read-out: hRV-14 EC50
hRV-39 = experiment: Rhinovirus type 39 antiviral assay in Hela Rh cells, MTS readout; assay type: cell-based, Human rhinovirus; conditions: Human rhinovirus sp., HRV39, HeLa Rh, Hela Rh cells; read-out: hRV-39 EC50
hRV-45 = experiment: Rhinovirus type 45 antiviral assay in Hela Rh cells, MTS readout; assay type: cell-based, Human rhinovirus; conditions: Human rhinovirus sp., HRV45, HeLa Rh, Hela Rh cells; read-out: hRV-45 EC50
hRV-63 = experiment: Rhinovirus type 63 antiviral assay in Hela Rh cells, MTS readout; assay type: cell-based, Human rhinovirus; conditions: Human rhinovirus sp., HRV63, HeLa Rh, Hela Rh cells; read-out: hRV-63 EC50
hRV-85 = experiment: Rhinovirus type 85 antiviral assay in Hela Rh cells, MTS readout; assay type: cell-based, Human rhinovirus; conditions: Human rhinovirus sp., HRV85, HeLa Rh, Hela Rh cells; read-out: hRV-85 EC50
hRV-2 = experiment: Rhinovirus type 2 antiviral assay in Hela Rh cells, MTS readout; assay type: cell-based, Human rhinovirus; conditions: Rhinovirus A, HRV2, HeLa Rh, Hela Rh cells; read-out: hRV-2 EC50
hRV-15 = experiment: Rhinovirus type 15 antiviral assay in Hela Rh cells, MTS readout; assay type: cell-based, Human rhinovirus; conditions: Human rhinovirus sp., HRV15, HeLa Rh, Hela Rh cells; read-out: hRV-15 EC50
hRV-72 = experiment: Rhinovirus type 72 antiviral assay in Hela Rh cells, MTS readout; assay type: cell-based, Human rhinovirus; conditions: Human rhinovirus sp., HRV72, HeLa Rh, Hela Rh cells; read-out: hRV-72 EC50
hRV-29 = experiment: Rhinovirus type 29 antiviral assay in Hela Rh cells, MTS readout; assay type: cell-based; conditions: Human rhinovirus sp., HRV29, HeLa Rh, Hela Rh cells; read-out: hRV-29 EC50
hRV-41 = experiment: Rhinovirus type 41 antiviral assay in Hela Rh cells, MTS readout; assay type: cell-based, Human rhinovirus; conditions: Human rhinovirus sp., HRV41, HeLa Rh, Hela Rh cells; read-out: hRV-41 EC50
[1] = Cytostatic/cytotoxic effect in Hela Rh cells (rhinovirus methodology, MTS); conditions: human, CC50, Hela Rh cells
hRV-70 = experiment: Rhinovirus type 70 antiviral assay in Hela Rh cells, MTS readout; assay type: cell-based, Human rhinovirus; conditions: Human rhinovirus sp., HRV70, HeLa Rh, Hela Rh cells; read-out: hRV-70 EC50
hRV-9 = experiment: Rhinovirus type 9 antiviral assay in Hela Rh cells, MTS readout; assay type: cell-based, Human rhinovirus; conditions: Human rhinovirus sp., HRV9, HeLa Rh, Hela Rh cells; read-out: hRV-9 EC50
hRV-86 = experiment: Rhinovirus type 86 antiviral assay in Hela Rh cells, MTS readout; assay type: cell-based, Human rhinovirus; conditions: Human rhinovirus sp., HRV86, HeLa Rh, Hela Rh cells; read-out: hRV-86 EC50

Compound | EC50 (hRV-42) | EC50 (hRV-14) | EC50 (hRV-39) | EC50 (hRV-45) | EC50 (hRV-63) | EC50 (hRV-85) | EC50 (hRV-2) | EC50 (hRV-15) | EC50 (hRV-72) | EC50 (hRV-29) | EC50 (hRV-41) | CC50 [1] | EC50 (hRV-70) | EC50 (hRV-9) | EC50 (hRV-86)
COc1ccc(OCC(=O)N2CCN(c3nc(N)nc4sc(CCc5ccc(C)cc5)nc34)CC2)cc1 [Example 259, 1-(4-(5-amino-2-(4-methylphenethyl)thiazolo[5,4-d]pyrimidin-7-yl)piperazin-1-yl)-2-(4-methoxyphenoxy)ethanone] | > 50 µg/mL | > 50 µg/mL | 0.32 µg/mL (≈ 0.617 µM) | 2.56 µg/mL (≈ 4.94 µM) | 18.3 µg/mL (≈ 35.3 µM) | 1.52 µg/mL (≈ 2.93 µM) | 0.48 µg/mL (≈ 0.925 µM) | > 50 µg/mL | > 50 µg/mL | 0.41 µg/mL (≈ 0.791 µM) | > 50 µg/mL | > 50 µg/mL | > 50 µg/mL | 0.35 µg/mL (≈ 0.675 µM) | 
Nc1nc(N2CCN(C(=O)COc3ccc(Br)cc3)CC2)c2nc(-c3ccc(F)cc3)sc2n1 [Example 235, 1-(4-(5-amino-2-(4-fluorophenyl)thiazolo[5,4-d]pyrimidin-7-yl)piperazin-1-yl)-2-(4-bromophenoxy)ethanone] | < 0.39 µg/mL | 0.04 µg/mL (≈ 0.0736 µM) | < 0.02 µg/mL | < 0.39 µg/mL | < 0.39 µg/mL | < 0.39 µg/mL | < 0.02 µg/mL | < 0.02 µg/mL | 0.65 µg/mL (≈ 1.2 µM) | < 0.02 µg/mL | < 0.39 µg/mL | > 50 µg/mL | < 0.39 µg/mL | < 0.02 µg/mL | 0.58 µg/mL (≈ 1.07 µM)
CCCCCc1nc2c(N3CCN(C(=O)COc4ccc(OC)cc4)CC3)nc(N)nc2s1 [Example 296, 1-(4-(5-amino-2-pentylthiazolo[5,4-d]pyrimidin-7-yl)piperazin-1-yl)-2-(4-methoxyphenoxy)ethanone] | 4.25 µg/mL (≈ 9.03 µM) | 9.93 µg/mL (≈ 21.1 µM) | 0.04 µg/mL (≈ 0.085 µM) | 4.13 µg/mL (≈ 8.78 µM) | 0.71 µg/mL (≈ 1.51 µM) | 0.64 µg/mL (≈ 1.36 µM) | 0.19 µg/mL (≈ 0.404 µM) | 0.44 µg/mL (≈ 0.935 µM) | 26.5 µg/mL (≈ 56.3 µM) | 0.09 µg/mL (≈ 0.191 µM) | 7.02 µg/mL (≈ 14.9 µM) | > 50 µg/mL | 2.53 µg/mL (≈ 5.38 µM) | 0.2 µg/mL (≈ 0.425 µM) | 17.8 µg/mL (≈ 37.7 µM)
COc1cccc(CCc2nc3c(N4CCN(C(=O)COc5ccc(Br)cc5)CC4)nc(N)nc3s2)c1 [Example 254, 1-(4-(5-amino-2-(3-methoxyphenethyl)thiazolo[5,4-d]pyrimidin-7-yl)piperazin-1-yl)-2-(4-bromophenoxy)ethanone] | 2.41 µg/mL (≈ 4.13 µM) | 1.23 µg/mL (≈ 2.11 µM) | 1.18 µg/mL (≈ 2.02 µM) | 4.87 µg/mL (≈ 8.35 µM) | 5.85 µg/mL (≈ 10 µM) | 3.99 µg/mL (≈ 6.84 µM) | 1.3 µg/mL (≈ 2.23 µM) | 3.44 µg/mL (≈ 5.9 µM) | 9.05 µg/mL (≈ 15.5 µM) | 1.27 µg/mL (≈ 2.18 µM) | 13 µg/mL (≈ 22.3 µM) | > 50 µg/mL | 4.77 µg/mL (≈ 8.17 µM) | 1.26 µg/mL (≈ 2.16 µM) | 4.62 µg/mL (≈ 7.92 µM)
Nc1nc(N2CCN(C(=O)COc3cccc(Cl)c3)CC2)c2nc(CCc3ccc(F)cc3)sc2n1 [Example 228, 1-(4-(5-amino-2-(4-fluorophenethyl)thiazolo[5,4-d]pyrimidin-7-yl)piperazin-1-yl)-2-(3-chlorophenoxy)ethanone] |  | 9.21 µg/mL (≈ 17.5 µM) | 1.28 µg/mL (≈ 2.43 µM) |  | 13.8 µg/mL (≈ 26.1 µM) | 4.14 µg/mL (≈ 7.86 µM) | 1.27 µg/mL (≈ 2.41 µM) | 43.9 µg/mL (≈ 83.2 µM) | > 50 µg/mL | 1.38 µg/mL (≈ 2.62 µM) | > 50 µg/mL | > 50 µg/mL | 10 µg/mL (≈ 19.1 µM) | 1.16 µg/mL (≈ 2.2 µM) | 4.86 µg/mL (≈ 9.22 µM)
Nc1nc(N2CCN(C(=O)COc3ccc(Cl)cc3)CC2)c2nc(CCCc3ccc(F)cc3)sc2n1 [Example 290, 1-(4-(5-amino-2-(3-(4-fluorophenyl)propyl)thiazolo[5,4-d]pyrimidin-7-yl)piperazin-1-yl)-2-(4-chlorophenoxy)ethanone] | > 50 µg/mL | > 50 µg/mL | > 50 µg/mL | > 50 µg/mL | > 50 µg/mL | 19.4 µg/mL (≈ 35.8 µM) | 49.2 µg/mL (≈ 91 µM) | > 50 µg/mL | > 50 µg/mL | > 50 µg/mL | > 50 µg/mL | > 50 µg/mL | > 50 µg/mL | > 50 µg/mL | > 50 µg/mL
COc1ccc(OCC(=O)N2CCN(c3nc(N)nc4sc(-c5ccc(C)cc5)nc34)CC2)cc1 [Example 294, 1-(4-(5-amino-2-p-tolylthiazolo[5,4-d]pyrimidin-7-yl)piperazin-1-yl)-2-(4-methoxyphenoxy)ethanone] | 0.63 µg/mL (≈ 1.28 µM) | 29.1 µg/mL (≈ 59.4 µM) | < 0.02 µg/mL | < 0.39 µg/mL | < 0.39 µg/mL | < 0.39 µg/mL | < 0.02 µg/mL | 1.82 µg/mL (≈ 3.71 µM) | 20.6 µg/mL (≈ 41.9 µM) | < 0.02 µg/mL | 0.43 µg/mL (≈ 0.876 µM) | > 50 µg/mL | 5.26 µg/mL (≈ 10.7 µM) | 0.02 µg/mL (≈ 0.0408 µM) | 
